Reference: PubChem BioAssay (NCI)
Where “and” joins values, the source holds several entries; their conditions need not be identical. Equal entries are not always repeated.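 Values below derive from 48-hour exposures of cells grown in 96-well plates, with endpoints linearly interpolated between the two concentrations bracketing the appropriate inhibition level. Abbreviation: GI50, concentration required for 50% inhibition of growth. TGI denotes the concentration required for complete inhibition of growth.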

Tests used:
Assay in all cases: growth of human tumour cells (NCI), 48 h
NCI/ADR-RES ovarian = test system: NCI/ADR-RES ovarian
A549 NSCLC = test system: A549 NSCLC
SNB-78 CNS = test system: SNB-78 CNS
RPMI-8226 leukemia = test system: RPMI-8226 leukemia
UACC-257 melanoma = test system: UACC-257 melanoma
HCT-116 colon = test system: HCT-116 colon
UACC-62 melanoma = test system: UACC-62 melanoma
MOLT-4 leukemia = test system: MOLT-4 leukemia
SF-295 CNS = test system: SF-295 CNS
SW-620 colon = test system: SW-620 colon
SF-268 CNS = test system: SF-268 CNS
EKVX NSCLC = test system: EKVX NSCLC
MALME-3M melanoma = test system: MALME-3M melanoma
CAKI-1 renal = test system: CAKI-1 renal
BT-549 breast = test system: BT-549 breast
SK-MEL-5 melanoma = test system: SK-MEL-5 melanoma
NCI-H23 lung = test system: NCI-H23 lung

SMILES: CCOC(=O)C(CC(C)C)NC(=O)C(Cc1ccc(N(CCCl)CCCl)cc1)NC(C)=O (stereo not drawn)
- TGI (NCI/ADR-RES ovarian): 68.5 µM
- TGI (A549 NSCLC): > 100 µM and 77.5 µM
- TGI (SNB-78 CNS): 16.6 µM and 17.8 µM
- GI50 (RPMI-8226 leukemia): 3.19 µM
- TGI (RPMI-8226 leukemia): 14.8 µM and 15 µM
- TGI (UACC-257 melanoma): 14 µM and 13.1 µM
- GI50 (HCT-116 colon): 12.7 µM
- TGI (HCT-116 colon): 29.3 µM and 39.8 µM
- GI50 (UACC-62 melanoma): 2.86 µM
- TGI (UACC-62 melanoma): 12.7 µM and 7.29 µM
- GI50 (MOLT-4 leukemia): 2.04 µM and 0.307 µM
- TGI (MOLT-4 leukemia): 15.5 µM and 3.31 µM
- GI50 (SF-295 CNS): 7.89 µM
- TGI (SF-295 CNS): 26.8 µM and 26.3 µM
- GI50 (SW-620 colon): 11.3 µM
- TGI (SW-620 colon): 28.7 µM and 33.4 µM
- TGI (SF-268 CNS): 22.6 µM and 20.5 µM
- GI50 (EKVX NSCLC): 19.7 µM
- TGI (EKVX NSCLC): 35.7 µM and 27.7 µM
- GI50 (MALME-3M melanoma): 4.01 µM
- TGI (MALME-3M melanoma): 22.8 µM and 7.77 µM
- GI50 (CAKI-1 renal): 3.71 µM
- TGI (CAKI-1 renal): 16.2 µM and 6.73 µM
- TGI (BT-549 breast): 32.3 µM
- GI50 (SK-MEL-5 melanoma): 10.6 µM
- TGI (SK-MEL-5 melanoma): 23.5 µM and 10.7 µM
- GI50 (NCI-H23 lung): 5.17 µM
- TGI (NCI-H23 lung): 16.7 µM and 16.5 µM
